According to patent publication US5412117A, “Benzopyran derivatives” (Chugai Seiyaku Kabushiki Kaisha, priority 1990, dated 1995):

Key:
Excised Aorta of Rat = assay: Test with Excised Aorta of Rat: relaxation of lasting contraction following KCl (30 mM) addition; format: cell-based, male Sprague Dawley rat; settings: rat thoracic aorta rings, 30 mM KCl contraction, 37° C.
Description: Test with Excised Aorta of Rat
The thoracic aorta was excised from a male Sprague Dawley rat (450 to 600 g) and cut into 2 mm wide ring preparations. Each preparation was suspended in 10 ml of an organ bath containing a Krebs-Henseleit solution (NaCl:119; KCl:4.8; CaCl2 ·2H2 O: 2.53; KH2 PO4 :1.2; MgSO4 ·7H2 O: 1.2; NaHCO3 : 24.8; glucose: 10 (mM); 37° C.) under a tension of 2 g, and a mixed gas of 95% O2 and 5% CO2 was bubbled therethrough. Isometric contractions of the preparation were recorded by means of an FD pick-up. […] The activity of a test compound to relax a lasting contraction following the KCl addition was evaluated by obtaining a 50% inhibitory concentration (IC50).
The compounds of the present invention obtained in the foregoing Examples and, for comparison, Cromakalim were used as test compounds.

[1] = tested on: Guinea Pig Tracheal Muscle; assay: Test with Guinea Pig Tracheal Muscle: relaxation of spontaneous tension; format: cell-based, male Hartley guinea pig; settings: Cavia porcellus; concentration exhibiting 50% relaxing activity, relaxing activity of 1 mM aminophylline taken as 100%, 37° C.
Description: Test with Guinea Pig Tracheal Muscle
The trachea was excised from a male Hartley guinea pig (450 to 550 g) to make chain preparations. The preparation was suspended in a bath containing the same Krebs-Henseleit solution as used in Test Example 1 (37° C.) through which a mixed gas of 95% O2 and 5% CO2 was bubbled. Isometric contractions of the preparation were recorded under a tension of 1 g.
The same test compounds as used in Test Example 1 were used.

[2] = tested on: histamine-induced increase in respiratory tract inner pressure; assay: Study on Antiasthmatic Activity: inhibition of histamine-induced increase in respiratory tract inner pressure; format: in vivo, male Hartley guinea pig; settings: Cavia porcellus; dose for 50% inhibition of histamine-induced increase in respiratory tract inner pressure; intraduodenal, anesthetized guinea pig
Description: Study on Antiasthmatic Activity
A mid-line incision was made in the neck of a male Hartley guinea pig (600 to 800 g, CRJ) under anesthesia with pentobarbitar (40 mg/kg, i.p.). The trachea, the left […], and the left carotid artery were exposed, and a cannula was inserted into each of them. The inner pressure of the respiratory tract was measured while applying artificial respiration through the tracheal cannula. The blood pressure was measured through the arterial cannula, and the heart rate was determined from the pulse. Pentobarbital for anesthesia maintenance was continuously administered through the venous cannula. A mid-line incision was made on the abdomen to expose the duodenum, and a cannula for intraduodenal administration was inserted thereinto. After the postoperative convalescence of 30 to 60 minutes, histamine (5 to 10 μg/kg) was intravenously administered every 10 minutes. After it was confirmed that a respiratory tract inner pressure rise reaction was stably obtained, a test compound in the form of a 0.3% CMC suspension was intraduodenally administered. The histamine dose was so selected that the respiratory tract inner pressure might rise to 20 to 40 cmH2 O after every lntravenous administration. After administration of the test compound, intravenous administration of histamine at 10 minutes intervals was continued. The histamine-induced increase in respiratory tract inner pressure after the administration of the test compound was compared with that before the administration.

`CC1(C)Oc2ccc(C#N)cc2[C@@H](N2CCCC2=O)[C@@H]1O` (relative stereo) [Cromakalim, reference compound] gave an IC50 (Excised Aorta of Rat) of 180 nM, an IC50 [1] of 790 nM and an ED50 [2] of 1 to 3 mg/kg.

`CNC(=S)C1=CC(C)(C)Oc2ccc(C#N)cc21` [Compound 3, N-Methyl-6-cyano-2,2-dimethyl-2H-1-benzopyran-4-carbothioamide] gave an IC50 (Excised Aorta of Rat) of 33 nM and an IC50 [1] of 200 nM.

For `CNC(=S)C1=CC(C)(C)Oc2ccc([N+](=O)[O-])cc21` [Compound 8, N,2,2-Trimethyl-6-nitro-2H-1-benzopyran-4-carbothioamide], the IC50 (Excised Aorta of Rat) was 1.4 nM, the IC50 [1] was 6.3 nM and the ED50 [2] was 0.1 to 0.3 mg/kg.

`CNC(=O)C1=CC(C)(C)Oc2ccc([N+](=O)[O-])cc21` [Compound 10, N-Methyl-6-nitro-2,2-dimethyl-2H-1-benzopyran-4-carboxamide] gave an IC50 (Excised Aorta of Rat) of 11 nM, an IC50 [1] of 33 nM and an ED50 [2] of under 0.1 mg/kg.

`CN(C)C(=NC#N)C1=CC(C)(C)Oc2ccc([N+](=O)[O-])cc21` [Compound 11, N^2 -Cyano-N^1,N^1-dimethyl-6-nitro-2,2-dimethyl-2H-1-benzopyran-4-carboxamidine] showed an IC50 (Excised Aorta of Rat) of over 30000 nM, an IC50 [1] of 54 nM and an ED50 [2] of 0.1 mg/kg.

In the case of `CN=C(NC#N)C1=CC(C)(C)Oc2ccc([N+](=O)[O-])cc21` [Compound 12, N-Cyano-N'-methyl-6-nitro-2,2-dimethyl-2H-1-benzopyran-4-carboxamidine], the IC50 (Excised Aorta of Rat) is reported as 11 nM, the IC50 [1] is reported as 23 nM and the ED50 [2] is reported as 0.1 to 0.3 mg/kg.

`CNC(=O)C1CC(C)(C)Oc2ccc([N+](=O)[O-])cc21` (stereo not shown) [Compound 22, N-Methyl-3,4-dihydro-6-nitro-2,2-dimethyl-2H-1-benzopyran-4-carboxamide] was tested, and the IC50 (Excised Aorta of Rat) was 14 nM, the IC50 [1] was 36 nM and the ED50 [2] was under 0.3 mg/kg.

Molecule `CCC1(C)C=C(C(=S)NC)c2cc([N+](=O)[O-])ccc2O1` (stereo not shown) [Compound 90] has an IC50 (Excised Aorta of Rat) of 0.18 nM and an IC50 [1] of 2.9 nM.

For `CNC(=S)C1=CC2(CCCCC2)Oc2ccc([N+](=O)[O-])cc21` [Compound 91], the IC50 (Excised Aorta of Rat) was 0.14 nM and the IC50 [1] was 38 nM.

With `CNC(=S)C1=CC(C)(C)Oc2ccc(C(F)(F)F)cc21` [Compound 104] the IC50 (Excised Aorta of Rat) was 2.6 nM and the IC50 [1] was 37 nM.

In the case of `CCNC(=S)C1=CC(C)(C)Oc2ccc([N+](=O)[O-])cc21` [Compound 113], the IC50 (Excised Aorta of Rat) is reported as 3.7 nM and the IC50 [1] is reported as 11 nM.

`CCCNC(=S)C1=CC(C)(C)Oc2ccc([N+](=O)[O-])cc21` [Compound 115] showed an IC50 (Excised Aorta of Rat) of 3 nM and an IC50 [1] of 41 nM.

For `CNC(=S)C1=CC2(CCCC2)Oc2ccc([N+](=O)[O-])cc21` [Compound 128], the IC50 (Excised Aorta of Rat) was 0.037 nM and the IC50 [1] was 50 nM.

Molecule `CNC(=S)C1=CC(C)(C)Oc2ccc(Br)cc21` [Compound 134] has an IC50 (Excised Aorta of Rat) of 9.3 nM and an IC50 [1] of 75 nM.

For `CC1(C)C=C(C(=S)NC2CC2)c2cc([N+](=O)[O-])ccc2O1` [Compound 137], the IC50 (Excised Aorta of Rat) was 3.7 nM and the IC50 [1] was 22 nM.

Work on `CCCNC(=O)C1=CC(C)(C)Oc2ccc([N+](=O)[O-])cc21` [Compound 146] yielded an IC50 (Excised Aorta of Rat) of 5.7 nM and an IC50 [1] of 56 nM.

`CCC1(C)C=C(C(=O)NC)c2cc([N+](=O)[O-])ccc2O1` (stereo not shown) [Compound 181] showed an IC50 (Excised Aorta of Rat) of 2.1 nM, an IC50 [1] of 16 nM and an ED50 [2] of 0.1 to 0.3 mg/kg.

`CNC(=O)C1=CC2(CCCCC2)Oc2ccc([N+](=O)[O-])cc21` [Compound 186] showed an IC50 (Excised Aorta of Rat) of 0.042 nM and an IC50 [1] of 11 nM.

Work on `CCN(CC)C(=O)C1=CC(C)(C)Oc2ccc([N+](=O)[O-])cc21` [Compound 193] yielded an IC50 (Excised Aorta of Rat) of 6000 nM, an IC50 [1] of 57 nM and an ED50 [2] of under 0.3 mg/kg.
